According to publication PMC6957347 (Pharmacology Research & Perspectives, 2020):

Legend:
[1] = tested on: human B and T cell cocultures; conditions: BioMAP T:B cocultures ref 10; cited from earlier work
rheumatoid arthritis = conditions: 0.5-5 mg, twice a day, PO ref 27; cited from earlier work
PI3Kβ/α = assay: pAKT in PC3 cell line; format: cell-based

| SMILES | IgG production [1] | efficacy in rheumatoid arthritis clinical trials (rheumatoid arthritis) | IC50 (PI3Kβ/α) [nM] |
| --- | --- | --- | --- |
| [O-][n+]1cccc(-c2nc3c(Cl)cccc3cc2[C@@H](Nc2ncnc3cccnc23)C(F)(F)F)c1 [seletalisib] | attenuation of IgG production | – | – |
| C[C@H](Nc1ncnc2nc[nH]c12)c1cc2cccc(Cl)c2c(=O)n1-c1ccccc1 [duvelisib] | – | efficacy could not be demonstrated | […] |
